Reference: patent US20030225049A1, “Method of treatment for increasing the number of NMDA receptors in a mammalian brain” (UNIVERSITE PARIS VI, priority 1998, published 2003)

What was measured:
Format in all cases: in vivo
NMDA receptors = experiment: Effect of DHEAS treatment on [3H]-MK801-labeled NMDA receptor sites in rat brain (quantitative autoradiography); settings: male Wistar rats, 30 mg/kg i.p. twice daily for 5 days
From the text: 1.1 Labeling the NMDA Receptors with the Ligand [^3H]-MK801
The NMDA receptors in the rat brain were labeled by means of the quantitative autoradiography technique, thereby making it possible to visualize and quantify the number of receptors in different regions of the brain.
The radioactive ligand which makes it possible to specifically recognize the sites of the NMDA receptors is tritium-labeled dizocilpine (MK801), i.e. [^3H]-MK801 (Kemp et al. TINS (1987) 294-298).
Male rats (Wistar) weighing between 200 and 220 g were decapitated. Their brains were rapidly removed and placed in liquid isopentane at a temperature of −40° C. The brains were then stored at −80° C. until used.
Brain sections having a thickness of […] were obtained using a Frigocut 2800® cryostat, which is marketed by Reichert Jung.
The brain sections were preincubated in a 50 mM Tris-acetate, pH 7.4, buffer at 4° C. for 30 minutes. They were then dried rapidly at room temperature.
The sections were then incubated with the radioligand [^3H]-MK801, sold by New England Nuclear (Boston, Mass., USA) and having a specific activity of 24 Ci/mmol, at a concentration of 5 nM in the abovementioned buffer at 4° C. for a period of 4 hours.
Control sections were incubated with MK801, which was present at a concentration of 10^−5 M and which was not labeled with tritium, in order to determine non-specific binding.
All the sections were then rinsed for 5 seconds and then for 90 minutes in the same cold buffer.
The sections were dried at room temperature and then exposed on tritium-hyperfilm films (Amersham) at 4° C. in the dark for 4 weeks in autoradiography cassettes.
The films were developed for 2 minutes in a Kodak D19 developer and then fixed in Kodak Rapid fixer and finally rinsed for an hour in running water.
The autoradiographic labeling was quantified by densitometry using the RAG-200 software sold by BIOCOM (Les Ulis, France), and the binding was measured by relative optical density.
30 mg of DHEAS were administered/kg, intraperitoneally and twice daily, to non-castrated male Wistar rats for 5 days. The rats were sacrificed on the 5th day, 30 minutes after the last injection of DHEAS.
The apparent [^3H]-MK801-binding sites are measured by optical density OD for the total specific binding of [^3H]-MK801 in the cortex and different regions of the hippocampus: CA1; CA3; lateral blade of the dentate gyrus, DG1b, and the median blade of the dentate gyrus, DGmb.

[1] = system: NR1 subunit of the NMDA receptor; experiment: Immunohistochemistry of NR1 subunits of NMDA receptors in rat brain after DHEAS treatment; settings: after 5, 20 and 30 days of treatment, 30 mg/kg i.p. twice daily
Description: (§1) Male Wistar rats weighing 200-220 g (IFFA CREDO, Paris) were housed at 21° C. with a standard 12 h light/12 h dark cycle and with food and water being freely available. The animals received intraperitoneal (i.p.) injections of either the vehicle dimethyl sulfoxide (DMSO; 0.2 ml/250 g body weight(b.w.) or dehydroepiandrosterone sulfate (DHEAS; 30 mg/kg b.w. dissolved in DMSO (0.2 ml/250 g b.w)) twice daily, at 8 a.m. and 6 p.m., for a period of either 5, 20 or 30 days. The last injection was given at 8 a.m. of the 5th, 20th or 30th day. All the animals were killed 2 hours after the last injection. Six groups of animals (ten animals per group) were used. Three control groups received DMSO alone for a period of 5, 20 or 30 days respectively, and, in a similar manner, three groups received DHEAS treatment for a period of 5, 20 or 30 days respectively.
(§2) The rats were killed by decapitation and the brains were rapidly removed from the skull, quickly frozen in liquid isopentane at −40° C., and kept at −80° C. until sectioned. The frozen brains were cut into 20 um thick sections in a cryostat (Frigocut 2800, Reichert Jung). […]
(§3) The increase can be quantified by the SCION program developed at the National Institutes of Health (USA). […]

[2] = system: NR2 subunits of NMDA receptors (NMDA R2 A/B); experiment: Immunohistochemistry of NR2 subunits of NMDA receptors in rat brain after DHEAS treatment; settings: after 5, 20 and 30 days of treatment, 30 mg/kg i.p. twice daily
Description: as §1, §2, §3

## dehydroepiandrosterone sulfate [DHEAS]
NMDA receptors; CA1
  number of [3H]-MK801 sites, OD: 54.01 ± 4.05
NMDA receptors; CA3
  number of [3H]-MK801 sites, OD: 33.37 ± 4.94
NMDA receptors; Cortex
  number of [3H]-MK801 sites, OD: 24.88 ± 2.73
NMDA receptors; DG1b (dentate gyrus, lateral blade)
  number of [3H]-MK801 sites, OD: 42.15 ± 4.31
NMDA receptors; DGmb (dentate gyrus, medial blade)
  number of [3H]-MK801 sites, OD: 43.13 ± 3.53
[1]
  number of NR1 subunits (in words): clear increase
[2]
  NR2 subunits (in words): slight increase
